# ChEMBL document CHEMBL1126475, “Synthesis of a potent and selective non-peptide CCK-B/gastrin receptor antagonist tritiated ligand” (Bioorg Med Chem Lett, 1993)
# How the values were obtained:
# [1] = Tested for dissociation constant of the compound; Value ranges from 0.1-0.3; format: ADME
# [2] = biological target: T1, Gastrin/cholecystokinin type B receptor (Mus musculus, UniProt P56481); assay: The compound was evaluated for the inhibition of binding of [3H]-PD 140376 to Cholecystokinin type B receptor in mouse cortex.
# T1 sequence (P56481 whole entry): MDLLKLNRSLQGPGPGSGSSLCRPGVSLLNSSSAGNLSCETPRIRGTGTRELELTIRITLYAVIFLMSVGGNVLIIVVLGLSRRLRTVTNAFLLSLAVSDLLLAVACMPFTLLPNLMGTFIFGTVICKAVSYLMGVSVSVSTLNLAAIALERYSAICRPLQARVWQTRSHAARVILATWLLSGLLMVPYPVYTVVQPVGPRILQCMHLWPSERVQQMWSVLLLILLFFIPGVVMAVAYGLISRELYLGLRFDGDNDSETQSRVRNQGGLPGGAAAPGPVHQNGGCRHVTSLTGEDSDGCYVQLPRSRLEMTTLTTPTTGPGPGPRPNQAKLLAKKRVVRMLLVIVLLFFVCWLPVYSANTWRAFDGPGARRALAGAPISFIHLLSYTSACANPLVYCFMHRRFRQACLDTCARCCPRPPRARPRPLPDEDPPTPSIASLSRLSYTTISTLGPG
# [3] = biological target: T2, Gastrin/cholecystokinin type B receptor (Rattus norvegicus) (UniProt P30553); assay: Specific activity for Cholecystokinin type B receptor in 10e5 AR42J cells was determined for the compound.; format: cell-based; details: AR-42J
# T2 sequence (whole entry): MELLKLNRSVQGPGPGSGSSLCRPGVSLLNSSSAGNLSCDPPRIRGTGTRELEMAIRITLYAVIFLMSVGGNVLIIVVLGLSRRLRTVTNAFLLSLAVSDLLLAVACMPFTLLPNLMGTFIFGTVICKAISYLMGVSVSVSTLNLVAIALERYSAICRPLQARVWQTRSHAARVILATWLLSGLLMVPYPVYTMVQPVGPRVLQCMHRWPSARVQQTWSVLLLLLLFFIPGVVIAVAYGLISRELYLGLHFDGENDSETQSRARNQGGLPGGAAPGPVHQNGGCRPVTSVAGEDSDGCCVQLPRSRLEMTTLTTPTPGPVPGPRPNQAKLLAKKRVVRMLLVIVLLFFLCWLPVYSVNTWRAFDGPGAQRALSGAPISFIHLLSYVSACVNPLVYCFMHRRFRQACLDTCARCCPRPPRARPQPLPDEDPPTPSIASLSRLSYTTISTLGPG
# [4] = biological target: T3, Cholecystokinin receptor type A (Rattus norvegicus, UniProt P30551); assay: The compound was evaluated for the inhibition of binding of [125I]Bolton-Hunter CCK-8 to Cholecystokinin type A receptor in the rat pancreas.
# T3 sequence (P30551 whole entry): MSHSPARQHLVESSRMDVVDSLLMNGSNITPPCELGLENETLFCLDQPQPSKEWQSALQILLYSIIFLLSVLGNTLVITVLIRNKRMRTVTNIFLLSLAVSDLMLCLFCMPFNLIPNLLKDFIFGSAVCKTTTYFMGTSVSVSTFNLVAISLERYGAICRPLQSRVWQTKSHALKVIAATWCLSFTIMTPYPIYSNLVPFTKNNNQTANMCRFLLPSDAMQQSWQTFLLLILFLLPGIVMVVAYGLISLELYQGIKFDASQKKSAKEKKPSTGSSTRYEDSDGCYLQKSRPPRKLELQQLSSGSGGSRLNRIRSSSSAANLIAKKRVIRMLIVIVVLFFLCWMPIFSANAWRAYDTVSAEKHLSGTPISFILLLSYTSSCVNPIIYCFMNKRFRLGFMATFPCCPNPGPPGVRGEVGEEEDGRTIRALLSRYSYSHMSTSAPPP
# Rattus norvegicus = species on record: Rattus norvegicus; assay: Antagonistic activity against excitations of rat ventromedial hyphalamic neurones evoked in CCK-B; format: functional
Kd [1] [nM],Ki [2] [nM],Bmax (fmol/10^5 cells) [3],Ki [4] [nM],Structure (SMILES),Ke (Rattus norvegicus) [nM]
0.1,0.2,31,350,C[C@](Cc1c[nH]c2ccccc12)(NC(=O)OC1C2CC3CC(C2)CC1C3)C(=O)N[C@@H](CC(=O)O)Cc1ccc(N)cc1 (stereo not given in full),
,,,,CSCC[C@H](NC(=O)[C@H](Cc1c[nH]c2ccccc12)NC(=O)CCNC(=O)OC(C)(C)C)C(=O)N[C@@H](CC(=O)O)C(=O)N[C@@H](Cc1ccccc1)C(N)=O [PENTAGASTRIN],1.4
